{"source": "paper PMC12029662", "about": "“Cytotoxicity Comparison of ^99mTc-Labeled Peptide Antagonist and Agonist Targeting the SSTR2 Receptor in AR42J Cells” (Molecules, 2025)", "key": {"SSTR2": {"molecular_target": "T1, SSTR2 (Rattus norvegicus, UniProt P30680)", "T1 construct": "AR-42-J cells were seeded in 6-well plates; host or cells: AR-42-J (AR42J) rat pancreatic tumour cells, intact, no transfection described", "T1 sequence (P30680 whole entry)": "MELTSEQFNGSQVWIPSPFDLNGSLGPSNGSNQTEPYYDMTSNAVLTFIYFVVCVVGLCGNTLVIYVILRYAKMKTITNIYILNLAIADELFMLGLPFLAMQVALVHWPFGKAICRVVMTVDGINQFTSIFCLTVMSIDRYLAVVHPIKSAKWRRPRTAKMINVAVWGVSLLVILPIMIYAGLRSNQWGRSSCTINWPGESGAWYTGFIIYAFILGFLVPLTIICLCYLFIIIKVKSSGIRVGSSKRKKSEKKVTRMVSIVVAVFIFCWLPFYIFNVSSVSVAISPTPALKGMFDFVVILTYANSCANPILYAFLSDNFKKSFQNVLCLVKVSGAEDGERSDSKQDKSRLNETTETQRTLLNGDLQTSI", "assay": "Saturation binding affinity assay on AR-42-J cells", "details": "for Specific binding on AR42J cells, antagonist compared with agonist: specific = total minus nonspecific binding, Figure 2", "quoted_text": "Figure 2 illustrates the relationship between specific binding and the concentration of the radioconjugates. In Supplementary Materials Figure S1, we included experimental data on total binding and non-specific binding in the presence of a 2000-fold excess of octreotide, which allowed us to determine specific binding.\nFollowing incubation, the cells were washed with PBS, collected into tubes and then lysed twice using 800 μL of 1 M NaOH (for 12-well plate) and 1.5 mL of 1 M NaOH (for 6-well plates). The lysates were collected in separate tubes and radioactivity was measured using Wizard2 gamma counter, PerkinElmer, Waltham, MA, USA. The lysates were transferred to separate tubes and radioactivity was quantified using Wizard2 gamma counter."}, "AR42J cells [1]": {"test_system": "AR42J cells", "assay": "Cytotoxicity studies (MTS assay)", "description": "The properties of agonist octreotide conjugates labeled with the radionuclide ^111In have been studied in several works, primarily for imaging but also for Auger electron therapy. The ^111In not only emits gamma quanta but also produces 7.4 Auger electrons. […] In a few works, Maecke et al. also studied ^111In radioconjugates with SSTR receptor antagonists, but these studies were focused on tumor imaging and the therapeutic effect was not investigated. […] They are easily repairable and the cells could continue to divide.\nFigure 4 Cytotoxicity of ^99mTc-labeled SSTR2 receptor agonist TEKTROTYD (left graph) and antagonist TECANT-1 (right graph) for AR42J cells. The data results are expressed in mean ± standard deviation. One-way ANOVA analysis was used for multiple group comparisons, followed by Tukey’s test.\nA cytotoxicity assay was performed using the AR42J cell line. A total of 10^4 cells were seeded in 96-well plate and incubated overnight at 37 °C in a 5% CO2 atmosphere. The following day, the medium was removed and the cells were treated with radiocompounds at concentrations of 100, 50, 25, 12.5 MBq/mL The cells were then incubated for 24, 48, and 72 h. At each specified time point, 20 µL of MTS reagent was added to cells and incubated for 2 h. Absorbance at 490 nm was measured to estimate the percentage of cell metabolic activity. […] The average absorbance of these control wells was subtracted from the absorbance of wells containing treated cells."}, "AR42J cells [2]": {"test_system": "AR42J cells", "assay": "Internalization assay (membrane-bound vs internalized fraction)", "assay_type": "cell-based, rat", "details": "Figure 3", "quoted_text": "Briefly, AR42J cells (7 × 10^5 cells/well) were seeded in 6-well plates and incubated for 2 days. Following this incubation, the cells were washed twice with cold PBS and then treated with 5 nM of tested compounds. To avoid internalization, the cells were incubated at 4 °C for 1 h. Non-specific binding was assessed by adding a 1000-fold molar excess of unlabeled octreotide acetate. After incubation, unbound fraction was collected in tubes, and the cells were washed twice with 1 mL of cold PBS. Fresh medium was then added, and the cells were incubated at 37 °C for up to 24 h. At each time interval, the second medium portion was collected, and cells were washed twice with 1 mL of PBS. Next, the membrane-bound fraction was collected using 0.05 M glycine–HCl buffer (pH 2.8). Finally, the internalized fraction was obtained by lysing the cells with 1.5 mL of 1 M NaOH."}, "[3]": {"details": "reported in multiple studies; cited from earlier work"}, "[4]": {"details": "AR42J cells, MTS, 12.5–100 MBq/mL, Figure 4"}}, "note": "Where two headings read alike, the source gives them in different places. Positions of bridges follow the written chain, without caps; N, C: chain ends. Non-standard residues stand in square brackets, D forms with d. dPhe(4-NHCONH2) = NC(=O)Nc1ccc(C[C@@H](N)C(=O)O)cc1; Phe(4-Cl) = N[C@@H](Cc1ccc(Cl)cc1)C(=O)O; N4 = N4 chelator for 99mTc"}
{"substance": "N4-p-Cl-Phe-cyclo(D-Cys-Tyr-DAph(Cbm)-Lys-Thr-Cys)-D-Tyr-NH2 (disulfide) [TECANT-1]", "values": [{"measurement": "Specific binding on AR42J cells, antagonist compared with agonist", "setting": "SSTR2", "value": "significantly greater"}, {"measurement": "Cell viability after 72 h compared with earlier time points", "setting": "AR42J cells [1]; [4]", "value": "no such effect was observed"}]}
{"substance": "^99mTc-N4-p-Cl-Phe-cyclo(D-Cys-Tyr-D-4-amino-Phe(carbamoyl)-Lys-Thr-Cys)D-Tyr- NH2 (disulfide) [^99mTc-TECANT-1]", "values": [{"measurement": "Cellular localization in words", "setting": "AR42J cells [2]", "value": "most of the radioconjugate is accumulated in the cell membrane"}, {"measurement": "Specific binding on AR42J cells, antagonist compared with agonist", "setting": "SSTR2", "value": "greater binding"}, {"measurement": "Cytotoxicity in words", "setting": "AR42J cells [1]", "value": "significantly enhanced cytotoxic effect"}, {"measurement": "Toxicity of antagonist relative to agonist", "setting": "AR42J cells [1]; AR42J cells, MTS, 12.5–100 MBq/mL, 24, 48, 72 h, Figure 4", "value": "two to three times higher"}]}
{"substance": "^99mTc-EDDA/HYNIC-3Tyr-octreotide (disulfide) [^99mTc-TEKTROTYD]", "values": [{"measurement": "Stability in biological fluids, including human serum", "setting": "[3]", "value": "high stability"}, {"measurement": "Cytotoxicity in words", "setting": "AR42J cells [1]; AR42J cells, MTS assay", "value": "slight cytotoxicity"}, {"measurement": "Cell viability after 72 h compared with earlier time points", "setting": "AR42J cells [1]; [4]", "value": "significant increase in cell viability observed after 72 h"}]}
{"substance": "^99mTc-N4-p-Cl-Phe-cyclo(D-Cys-Tyr-D-4-amino-Phe(carbamoyl)-Lys-Thr-Cys)D-Tyr- NH2 (disulfide) ({99mTc-N4}-[Phe(4-Cl)][dC]Y[dPhe(4-NHCONH2)]KTC[dY]-NH2; disulfide 2-7; also: 99mTc complex via N4 chelator) [^99mTc-TECANT-1]", "values": [{"measurement": "Kd", "setting": "SSTR2; saturation curves, AR42J cells, 2 h incubation with 0.004–20 nM radiopeptide, non-specific binding with 2000-fold excess of octreotide, gamma counter", "value": 1.5, "unit": "nM"}]}
